Structures can show the parent of a compound that is named as a salt.

In this assay the test system is Plasmodium falciparum: 3D7 strain. Briefly: P. falciparum 3D7 asexual blood stage assay (SYBR green readout). The class given is cell-based. Conditions: Plasmodium falciparum, 3D7, Erythrocyte, 72 h, P. falciparum 3D7 in human erythrocytes, 72 h incubation, SYBR green fluorescence. The method in brief:
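3D7-infected erythrocytes (5% haematocrit, 0.5% parasitaemia) were exposed 72 h at 37 °C under 1% O2/3% CO2 to a 20-point titration (50,000-15 nM final, 0.5% DMSO). Parasite DNA was read by SYBR green fluorescence after overnight lysis. Percent inhibition was set against mefloquine and DMSO, and EC50 came from a biphasic two-site fit.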
`C[C@H]1C[C@@H](N2C(=N)N[C@](C)(c3cccc(-c4cn(CC5CC(F)(F)C5)nn4)c3Cl)CC2=O)CCO1` [Example 116, (6S)-6-(2-Chloro-3-{1-[(3,3-difluorocyclobutyl)methyl]-1,2,3-triazol-4-yl}phenyl)-2-imino-6-methyl-3-[(2S,4S)-2-methyl-tetrahydropyran-4-yl]hexahydro-pyrimidin-4-one trifluoroacetic acid salt] yielded an IC50 of 208 nM. `C[C@H]1C[C@@H](N2C(=N)N[C@](C)(c3cccc(-c4cn(Cc5cccnc5)nn4)c3Cl)CC2=O)CCO1` [Example 117, (6S)-6-{2-Chloro-3-[1-(pyridin-3-ylmethyl)-1,2,3-triazol-4-yl]-phenyl}-2-imino-6-methyl-3-[(2S,4S)-2-methyltetrahydropyran-4-yl]hexahydropyrimidin-4-one trifluoroacetic acid salt] showed an IC50 of 371 nM. As for `C[C@H]1C[C@@H](N2C(=N)N[C@](C)(c3cccc(-c4cn(CCN5CCCC5)nn4)c3Cl)CC2=O)CCO1` [Example 118, (6S)-6-(2-Chloro-3-{1-[2-(pyrrolidin-1-yl)ethyl]-1,2,3-triazol-4-yl}phenyl)-2-imino-6-methyl-3-[(2S,4S)-2-methyl-tetrahydropyran-4-yl]hexahydro-pyrimidin-4-one trifluoroacetic acid salt], the figure is 1010 nM; as for `C[C@H]1C[C@@H](N2C(=N)N[C@](C)(c3cccc(-c4cn(-c5ccncc5)nn4)c3Cl)CC2=O)CCO1` [Example 119, (6S)-6-{2-Chloro-3-[1-(pyridin-4-yl)-1,2,3-triazol-4-yl]phenyl}-2-imino-6-methyl-3-[(2S,4S)-2-methyltetrahydropyran-4-yl]-hexahydropyrimidin-4-one trifluoroacetic acid salt], 296 nM. Under `C[C@H]1C[C@@H](N2C(=N)N[C@](C)(c3cccc(-c4cn(Cc5ccncc5)nn4)c3Cl)CC2=O)CCO1` [Example 120, (6S)-6-{2-Chloro-3-[1-(pyridin-4-ylmethyl)-1,2,3-triazol-4-yl]-phenyl}-2-imino-6-methyl-3-[(2S,4S)-2-methyltetrahydropyran-4-yl]hexahydropyrimidin-4-one trifluoroacetic acid salt] stands 507 nM; under `C=C(c1ccccc1)n1cc(-c2cccc([C@]3(C)CC(=O)N([C@H]4CCO[C@@H](C)C4)C(=N)N3)c2Cl)nn1` [Example 121, (6S)-6-{2-Chloro-3-[1-(1-phenyl-vinyl)-1,2,3-triazol-4-yl]phenyl}-2-imino-6-methyl-3-[(2S,4S)-2-methyltetrahydropyran-4-yl]-hexahydropyrimidin-4-one trifluoroacetic acid salt], 185 nM; under `C[C@H]1C[C@@H](N2C(=N)N[C@](C)(c3cccc(-c4cn(C5CCC5)nn4)c3Cl)CC2=O)CCO1` [Example 122, (6S)-6-[2-Chloro-3-(1-cyclobutyl-1,2,3-triazol-4-yl)phenyl]-2-imino-6-methyl-3-[(2S,4S)-2-methyl-tetrahydropyran-4-yl]hexahydro-pyrimidin-4-one trifluoroacetic acid salt], 101 nM.

As for `COCCn1cc(-c2cccc([C@]3(C)CC(=O)N([C@H]4CCO[C@@H](C)C4)C(=N)N3)c2Cl)nn1` [Example 123, (6S)-6-{2-Chloro-3-[1-(2-methoxy-ethyl)-1,2,3-triazol-4-yl]phenyl}-2-imino-6-methyl-3-[(2S,4S)-2-methyltetrahydropyran-4-yl]-hexahydropyrimidin-4-one trifluoroacetic acid salt], the IC50 is 542 nM. For `C[C@H]1C[C@@H](N2C(=N)N[C@](C)(c3cccc(-c4cn(Cc5ccccc5)nn4)c3Cl)CC2=O)CCO1` [Example 124, (6S)-6-[3-(1-Benzyl-1,2,3-triazol-4-yl)-2-chlorophenyl]-2-imino-6-methyl-3-[(2S,4S)-2-methyl-tetrahydropyran-4-yl]hexahydro-pyrimidin-4-one trifluoroacetic acid salt], the IC50 came out at 216 nM.

For `CC(n1cc(-c2cccc([C@]3(C)CC(=O)N([C@H]4CCO[C@@H](C)C4)C(=N)N3)c2Cl)nn1)C12CC(CO1)C2` (stereo partly drawn) [Example 125, (6S)-6-(2-Chloro-3-{1-[1-(2-oxa-bicyclo[2.1.1]hexan-1-yl)ethyl]-1,2,3-triazol-4-yl}phenyl)-2-imino-6-methyl-3-[(2S,4S)-2-methyl-tetrahydropyran-4-yl]hexahydro-pyrimidin-4-one trifluoroacetic acid salt], the half-inhibitory concentration (IC50) was found to be 220 nM. For the compound `C[C@H]1C[C@@H](N2C(=N)N[C@](C)(c3cccc(-c4cn(-c5ccccc5)nn4)c3Cl)CC2=O)CCO1` [Example 126, (6S)-6-[2-Chloro-3-(1-phenyl-1,2,3-triazol-4-yl)phenyl]-2-imino-6-methyl-3-[(2S,4S)-2-methyl-tetrahydropyran-4-yl]hexahydro-pyrimidin-4-one trifluoroacetic acid salt], half-maximal inhibition (IC50) was put at 5 nM. Under `CCCCn1cc(-c2cccc([C@]3(C)CC(=O)N([C@H]4CCO[C@@H](C)C4)C(=N)N3)c2Cl)nn1` [Example 127, (6S)-6-[3-(1-Butyl-1,2,3-triazol-4-yl)-2-chlorophenyl]-2-imino-6-methyl-3-[(2S,4S)-2-methyl-tetrahydropyran-4-yl]hexahydro-pyrimidin-4-one trifluoroacetic acid salt] stands 100 nM. Under `C[C@H](c1cccnc1)n1cc(-c2cccc([C@]3(C)CC(=O)N([C@H]4CCO[C@@H](C)C4)C(=N)N3)c2Cl)nn1` [Example 128, (6S)-6-(2-Chloro-3-{1-[(1R)-1-(pyridin-3-yl)ethyl]-1,2,3-triazol-4-yl}phenyl)-2-imino-6-methyl-3-[(2S,4S)-2-methyltetrahydropyran-4-yl]hexahydropyrimidin-4-one trifluoroacetic acid salt] stands 112 nM.

On to `C[C@H]1C[C@@H](N2C(=N)N[C@](C)(c3cccc(-c4cn(C5CCCNCC5)nn4)c3Cl)CC2=O)CCO1` (stereo partly drawn) [Example 129, (6S)-6-{3-[1-(Azepan-4-yl)-1,2,3-triazol-4-yl]-2-chlorophenyl}-2-imino-6-methyl-3-[(2S,4S)-2-methyltetrahydropyran-4-yl]-hexahydropyrimidin-4-one trifluoroacetic acid salt], for which inhibition was half-maximal at 11900 nM (IC50).

A word on the IC50: it is the concentration that gives 50% inhibition. Read a high IC50 as lower potency.

The values above are taken from patent publication US20250134890A1, “ANTIMALARIAL HEXAHYDROPYRIMIDINE ANALOGUES” (UCB BIOPHARMA SRL, priority 2022, published 2025).
